Tested on: HCT116
Assay: In vitro cytotoxicity measured by the cell colony formation assay
Type: cell-based
Conditions: HCT116 cells, 72 h drug incubation, colonies counted after 7 days; ID50 = drug concentration producing 50% inhibition of colony formation; read-out: IN VITRO ID 50 (nm) HCT116
Method: In Vitro Cytotoxicity Measured by the Cell Colony Formation Assay
Four hundred cells (HCT116) were plated in 60 mm Petri dishes containing 2.7 mL of medium (modified McCoy's 5a medium containing 10% fetal bovine serum and 100 units/mL penicillin and 100 µg/mL streptomycin). The cells were incubated in a CO2 incubator at 37° C. for 5 h for attachment to the bottom of Petri dishes. The compounds identified in Example 2 were made up fresh in medium at ten times the final concentration, and then 0.3 mL of this stock solution was added to the 2.7 mL of medium in the dish. The cells were then incubated with drugs for 72 h at 37° C. At the end of incubation the drug-containing media were decanted, the dishes were rinsed with 4 mL of Hank's Balance Salt Solution (HBSS), 5 mL of fresh medium was added, and the dishes were returned to the incubator for colony formation. The cell colonies were counted using a colony counter after incubation for 7 days.

## CC(=O)OC12COC1CC(O)C1(C)C(=O)C(OC(=O)C(C)C)C3=C(C)C(OC(=O)C(O)C(C=C(C)C)NC(=O)OC(C)(C)C)CC(O)(C(OC(=O)c4ccccc4)C21)C3(C)C (stereo not shown) [Compound 2226]
  IC50: < 1 nM

## CC(=O)OC12COC1CC(O)C1(C)C(=O)C(OC(=O)C(C)C)C3=C(C)C(OC(=O)C(O)C(NC(=O)OC(C)(C)C)c4ccccn4)CC(O)(C(OC(=O)c4ccccc4)C21)C3(C)C (stereo not shown) [Compound 2238]
  IC50: < 1 nM

## CC(=O)O[C@@]12CO[C@@H]1C[C@H](O)[C@@]1(C)C(=O)[C@H](OC(=O)C(C)C)C3=C(C)[C@@H](OC(=O)[C@H](O)[C@@H](NC(=O)OC(C)(C)C)c4cccnc4)C[C@@](O)([C@@H](OC(=O)c4ccccc4)C12)C3(C)C (stereo partly shown) [Compound 2242]
  IC50: < 10 nM

## CC(=O)O[C@@]12CO[C@@H]1C[C@H](O)[C@@]1(C)C(=O)[C@H](OC(=O)C(C)C)C3=C(C)[C@@H](OC(=O)[C@H](O)[C@@H](NC(=O)OC(C)(C)C)c4ccncc4)C[C@@](O)([C@@H](OC(=O)c4ccccc4)C12)C3(C)C (stereo partly shown) [Compound 2255]
  IC50: < 1 nM

## CC(=O)O[C@@]12CO[C@@H]1C[C@H](O)[C@@]1(C)C(=O)[C@H](OC(=O)C(C)C)C3=C(C)[C@@H](OC(=O)[C@H](O)[C@@H](NC(=O)OC(C)(C)C)c4ccco4)C[C@@](O)([C@@H](OC(=O)c4ccccc4)C12)C3(C)C (stereo partly shown) [Compound 2269]
  IC50: < 1 nM

## CC(=O)O[C@@]12CO[C@@H]1C[C@H](O)[C@@]1(C)C(=O)[C@H](OC(=O)C(C)C)C3=C(C)[C@@H](OC(=O)[C@H](O)[C@@H](NC(=O)OC(C)(C)C)c4ccoc4)C[C@@](O)([C@@H](OC(=O)c4ccccc4)C12)C3(C)C (stereo partly shown) [Compound 2273]
  IC50: < 1 nM

## CC(=O)O[C@@]12CO[C@@H]1C[C@H](O)[C@@]1(C)C(=O)[C@H](OC(=O)C(C)C)C3=C(C)[C@@H](OC(=O)[C@H](O)[C@@H](NC(=O)OC(C)(C)C)c4cccs4)C[C@@](O)([C@@H](OC(=O)c4ccccc4)C12)C3(C)C (stereo partly shown) [Compound 2287]
  IC50: < 1 nM

## CC(=O)O[C@@]12CO[C@@H]1C[C@H](O)[C@@]1(C)C(=O)[C@H](OC(=O)C(C)C)C3=C(C)[C@@H](OC(=O)[C@H](O)[C@@H](NC(=O)OC(C)(C)C)c4ccsc4)C[C@@](O)([C@@H](OC(=O)c4ccccc4)C12)C3(C)C (stereo partly shown) [Compound 2291]
  IC50: < 1 nM

## CC(=O)O[C@@]12CO[C@@H]1C[C@H](O)[C@@]1(C)C(=O)[C@H](OC(=O)C(C)C)C3=C(C)[C@@H](OC(=O)[C@H](O)[C@@H](NC(=O)OC(C)(C)C)C(C)C)C[C@@](O)([C@@H](OC(=O)c4ccccc4)C12)C3(C)C (stereo partly shown) [Compound 2306]
  IC50: < 10 nM

## CC(=O)O[C@@]12CO[C@@H]1C[C@H](O)[C@@]1(C)C(=O)[C@H](OC(=O)C(C)C)C3=C(C)[C@@H](OC(=O)[C@H](O)[C@@H](NC(=O)OC(C)(C)C)C4CCC4)C[C@@](O)([C@@H](OC(=O)c4ccccc4)C12)C3(C)C (stereo partly shown) [Compound 2319]
  IC50: < 10 nM

## CC(=O)O[C@@]12CO[C@@H]1C[C@H](O)[C@@]1(C)C(=O)[C@H](OC(=O)C(C)C)C3=C(C)[C@@H](OC(=O)[C@H](O)[C@@H](NC(=O)OC(C)(C)C)c4ccc([N+](=O)[O-])cc4)C[C@@](O)([C@@H](OC(=O)c4ccccc4)C12)C3(C)C (stereo partly shown) [Compound 2320]
  IC50: < 1 nM

## C/C=C/C(=O)O[C@H]1C(=O)[C@@]2(C)C([C@H](OC(=O)c3ccccc3)[C@]3(O)C[C@H](OC(=O)[C@H](O)[C@H](C=C(C)C)NC(=O)OC(C)(C)C)C(C)=C1C3(C)C)[C@]1(OC(C)=O)CO[C@@H]1C[C@@H]2O (stereo partly shown) [Compound 2332]
  IC50: < 1 nM

## C/C=C/C(=O)O[C@H]1C(=O)[C@@]2(C)C([C@H](OC(=O)c3ccccc3)[C@]3(O)C[C@H](OC(=O)[C@H](O)[C@@H](NC(=O)OC(C)(C)C)c4ccccn4)C(C)=C1C3(C)C)[C@]1(OC(C)=O)CO[C@@H]1C[C@@H]2O (stereo partly shown) [Compound 2348]
  IC50: < 1 nM

## C/C=C/C(=O)O[C@H]1C(=O)[C@@]2(C)C([C@H](OC(=O)c3ccccc3)[C@]3(O)C[C@H](OC(=O)[C@H](O)[C@@H](NC(=O)OC(C)(C)C)c4cccnc4)C(C)=C1C3(C)C)[C@]1(OC(C)=O)CO[C@@H]1C[C@@H]2O (stereo partly shown) [Compound 2353]
  IC50: < 10 nM

## C/C=C/C(=O)O[C@H]1C(=O)[C@@]2(C)C([C@H](OC(=O)c3ccccc3)[C@]3(O)C[C@H](OC(=O)[C@H](O)[C@@H](NC(=O)OC(C)(C)C)c4ccncc4)C(C)=C1C3(C)C)[C@]1(OC(C)=O)CO[C@@H]1C[C@@H]2O (stereo partly shown) [Compound 2366]
  IC50: < 1 nM

## C/C=C/C(=O)O[C@H]1C(=O)[C@@]2(C)C([C@H](OC(=O)c3ccccc3)[C@]3(O)C[C@H](OC(=O)[C@H](O)[C@@H](NC(=O)OC(C)(C)C)c4ccco4)C(C)=C1C3(C)C)[C@]1(OC(C)=O)CO[C@@H]1C[C@@H]2O (stereo partly shown) [Compound 2379]
  IC50: < 1 nM

## C/C=C/C(=O)O[C@H]1C(=O)[C@@]2(C)C([C@H](OC(=O)c3ccccc3)[C@]3(O)C[C@H](OC(=O)[C@H](O)[C@@H](NC(=O)OC(C)(C)C)c4ccoc4)C(C)=C1C3(C)C)[C@]1(OC(C)=O)CO[C@@H]1C[C@@H]2O (stereo partly shown) [Compound 2380]
  IC50: < 1 nM

## C/C=C/C(=O)O[C@H]1C(=O)[C@@]2(C)C([C@H](OC(=O)c3ccccc3)[C@]3(O)C[C@H](OC(=O)[C@H](O)[C@@H](NC(=O)OC(C)(C)C)c4cccs4)C(C)=C1C3(C)C)[C@]1(OC(C)=O)CO[C@@H]1C[C@@H]2O (stereo partly shown) [Compound 2392]
  IC50: < 1 nM

## C/C=C/C(=O)O[C@H]1C(=O)[C@@]2(C)C([C@H](OC(=O)c3ccccc3)[C@]3(O)C[C@H](OC(=O)[C@H](O)[C@@H](NC(=O)OC(C)(C)C)c4ccsc4)C(C)=C1C3(C)C)[C@]1(OC(C)=O)CO[C@@H]1C[C@@H]2O (stereo partly shown) [Compound 2408]
  IC50: < 1 nM

## C/C=C/C(=O)O[C@H]1C(=O)[C@@]2(C)C([C@H](OC(=O)c3ccccc3)[C@]3(O)C[C@H](OC(=O)[C@H](O)[C@@H](NC(=O)OC(C)(C)C)C(C)C)C(C)=C1C3(C)C)[C@]1(OC(C)=O)CO[C@@H]1C[C@@H]2O (stereo partly shown) [Compound 2413]
  IC50: < 10 nM

## C/C=C/C(=O)O[C@H]1C(=O)[C@@]2(C)C([C@H](OC(=O)c3ccccc3)[C@]3(O)C[C@H](OC(=O)[C@H](O)[C@@H](NC(=O)OC(C)(C)C)C4CCC4)C(C)=C1C3(C)C)[C@]1(OC(C)=O)CO[C@@H]1C[C@@H]2O (stereo partly shown) [Compound 2424]
  IC50: < 10 nM

## C/C=C/C(=O)O[C@H]1C(=O)[C@@]2(C)C([C@H](OC(=O)c3ccccc3)[C@]3(O)C[C@H](OC(=O)[C@H](O)[C@@H](NC(=O)OC(C)(C)C)c4ccc([N+](=O)[O-])cc4)C(C)=C1C3(C)C)[C@]1(OC(C)=O)CO[C@@H]1C[C@@H]2O (stereo partly shown) [Compound 2439]
  IC50: < 10 nM

## C/C=C/C(=O)O[C@H]1C(=O)[C@@]2(C)C([C@H](OC(=O)c3ccccc3)[C@]3(O)C[C@H](OC(=O)[C@H](O)[C@@H](NC(=O)OC(C)(C)C)c4ccccc4)C(C)=C1C3(C)C)[C@]1(OC(C)=O)CO[C@@H]1C[C@@H]2O (stereo partly shown) [Compound 2442]
  IC50: < 1 nM

## CC(=O)O[C@@]12CO[C@@H]1C[C@H](O)[C@@]1(C)C(=O)[C@H](OC(=O)C=C(C)C)C3=C(C)[C@@H](OC(=O)[C@H](O)[C@H](C=C(C)C)NC(=O)OC(C)(C)C)C[C@@](O)([C@@H](OC(=O)c4ccccc4)C12)C3(C)C (stereo partly shown) [Compound 2455]
  IC50: < 10 nM

## CC(=O)O[C@@]12CO[C@@H]1C[C@H](O)[C@@]1(C)C(=O)[C@H](OC(=O)C=C(C)C)C3=C(C)[C@@H](OC(=O)[C@H](O)[C@@H](NC(=O)OC(C)(C)C)c4ccccn4)C[C@@](O)([C@@H](OC(=O)c4ccccc4)C12)C3(C)C (stereo partly shown) [Compound 2464]
  IC50: < 1 nM

From patent US7524869B2, “Taxanes having a C10 ester substituent” (Florida State University Research Foundation, Inc., priority 2000, dated 2009)
